Like-named read-outs stand apart in the source and are kept apart here.

This experiment addresses T1, Human Recombinant Matriptase 2 (Homo sapiens, UniProt Q8IU80).
T1 construct: purchased Enzo Life Sciences (an in-house preparation was also used) ALX-201-752-1
T1 sequence (Q8IU80 1-811): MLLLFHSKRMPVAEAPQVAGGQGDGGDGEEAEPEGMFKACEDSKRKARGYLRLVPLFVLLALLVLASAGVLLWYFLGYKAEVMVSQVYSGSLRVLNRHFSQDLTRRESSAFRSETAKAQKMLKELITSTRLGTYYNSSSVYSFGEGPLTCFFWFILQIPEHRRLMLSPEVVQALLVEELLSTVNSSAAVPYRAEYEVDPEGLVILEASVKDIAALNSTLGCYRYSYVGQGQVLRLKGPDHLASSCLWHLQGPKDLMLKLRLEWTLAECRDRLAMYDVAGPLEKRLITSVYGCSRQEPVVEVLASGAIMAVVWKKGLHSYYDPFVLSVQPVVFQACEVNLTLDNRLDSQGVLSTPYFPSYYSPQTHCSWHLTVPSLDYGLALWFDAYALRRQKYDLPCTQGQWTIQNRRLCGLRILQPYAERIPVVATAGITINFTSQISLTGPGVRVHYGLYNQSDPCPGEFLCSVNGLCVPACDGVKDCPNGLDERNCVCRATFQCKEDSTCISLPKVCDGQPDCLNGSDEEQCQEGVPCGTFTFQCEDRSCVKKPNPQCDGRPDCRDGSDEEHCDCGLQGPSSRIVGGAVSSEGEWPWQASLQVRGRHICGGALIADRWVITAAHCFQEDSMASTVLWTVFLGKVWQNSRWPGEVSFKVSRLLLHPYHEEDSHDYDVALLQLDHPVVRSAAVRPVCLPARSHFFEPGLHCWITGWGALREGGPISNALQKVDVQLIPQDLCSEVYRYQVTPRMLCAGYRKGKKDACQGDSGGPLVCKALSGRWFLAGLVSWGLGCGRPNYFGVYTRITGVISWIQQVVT
Put plainly: Matriptase 2 fluorescence based inhibition assay, Method B (50 mM TRIS pH 7.5, 150 mM NaCl, 0.01% gelatin). The format is biochemical. As to conditions: read-out: Mar-2 % inhibition at 1 uM. In short, it runs like this: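 Fluorogenic substrate Boc-Gln-Ala-Arg-7-amido-4-methylcoumarin (100 μM) cleavage read at Ex 360/Em 480 nm 60 min after addition, following 30 min enzyme–compound preincubation at 25° C. Enzyme was 7 nM commercial or 15 nM in-house; DMSO 1%. IC50s fitted by non-linear sigmoidal regression.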

Setting [1] is: 1 uM compound, Assay Used = B (Method B).

As to `N=C(N)c1ccc2cc(CC(=O)N[C@H]3CC[C@H](N)CC3)n(Cc3cccc4ccccc34)c2c1` [Compound I-717], under setting [1], the inhibition at 1 µM fell in the range of 75 to 100%.

Turning to `CO/N=C(\N)c1ccc2cc(C(=O)OC)n(Cc3cccc4ccccc34)c2c1` [Compound I-718, methyl (E)-6-(N′-methoxycarbamimidoyl)-1-(naphthalen-1-ylmethyl)-1H-indole-2-carboxylate], under setting [1], the inhibition at 1 µM was in the range of 0 to 25%.

In the case of `CCOC(=O)c1cc2ccc(C(=N)NC(=O)OCC(C)C)cc2n1Cc1cccc2ccccc12` [Compound I-719, Ethyl 6-(N-(isobutoxycarbonyl)carbamimidoyl)-1-(naphthalen-1-ylmethyl)-1H-indole-2-carboxylate], the inhibition at 1 µM under setting [1] lay within 0 to 25%.

In the case of `CCCCCCOC(=O)NC(=N)c1ccc2cc(C(=O)O)n(Cc3cccc4ccccc34)c2c1` [Compound I-720, Potassium 6-(N-((hexyloxy)carbonyl)carbamimidoyl)-1-(naphthalen-1-ylmethyl)-1H-indole-2-carboxylate], the inhibition at 1 µM under setting [1] was in the range of 0 to 25%.

On to `N=C(N)c1ccc2cc(C(=O)N[C@H]3CC[C@H](N)CC3)n(Cc3cc(Oc4ccccc4)cc4ccccc34)c2n1` [Compound I-721], for which the inhibition at 1 µM under setting [1] was 75 to 100%.

Consider `N=C(N)c1ccc2cc(C(=O)N[C@H]3CC[C@@H](N)CC3)n(Cc3csc4ccccc34)c2n1` [Compound I-722], for which the inhibition at 1 µM under setting [1] lay in the range of 75 to 100%.

As for `CS(=O)(=O)N[C@H]1CC[C@@H](NC(=O)c2cc3ccc(C(=N)N)nc3n2Cc2cccc3ccccc23)CC1` [Compound I-723], under setting [1], the inhibition at 1 µM lay in the range of 75 to 100%.

Take `N=C(N)c1ccc2cc(C(=O)O)n(Cc3csc4ccccc34)c2n1` [Compound I-724]: the inhibition at 1 µM under setting [1] was in the range of 50 to 75%.

On to `N=C(N)c1ccc2cc(C(=O)N[C@H]3CC[C@H](N)CC3)n(Cc3cc(Sc4ccccc4)cc4ccccc34)c2c1` [Compound I-725], for which the inhibition at 1 µM under setting [1] was in the range of 75 to 100%.

`N=C(N)c1ccc2cc(N3CCOC3=O)n(Cc3cccc4ccccc34)c2c1` [Compound I-726, 1-(naphthalen-1-ylmethyl)-2-(2-oxooxazolidin-3-yl)-1H-indole-6-carboximidamide]: the inhibition at 1 µM under setting [1] fell in the range of 25 to 50%.

Regarding `N=C(N)c1ccc2cc(C(=O)N[C@H]3CC[C@H](N)CC3)n(Cc3cc(S(=O)(=O)c4ccccc4)cc4ccccc34)c2c1` [Compound I-727], the inhibition at 1 µM under setting [1] is 75 to 100%.

With `CS(=O)(=O)N[C@H]1CC[C@@H](NC(=O)c2cc3ccc(C(=N)N)cc3n2Cc2cccc3ccccc23)CC1` [Compound I-728], the inhibition at 1 µM under setting [1] lay in the range of 75 to 100%.

For `N=C(N)c1ccc2cc(C(=O)N[C@H]3CC[C@H](NC=O)CC3)n(Cc3cccc4ccccc34)c2c1` [Compound I-729], the inhibition at 1 µM under setting [1] was in the range of 50 to 75%.

With `N=C(N)c1ccc2cc(C(=O)O)n(Cc3cccc4c(Oc5ccccc5)cccc34)c2c1` [Compound I-730], the inhibition at 1 µM under setting [1] is 50 to 75%.

Take `N=C(N)c1ccc2cc(C(=O)N[C@H]3CC[C@H](N)CC3)n(Cc3cccc4c(Oc5ccccc5)cccc34)c2c1` [Compound I-731]: under setting [1], the inhibition at 1 µM lay in the range of 75 to 100%.

For the compound `N=C(N)c1ccc2cc(C(=O)O)n(Cc3cc(Oc4ccccc4)cc4ccccc34)c2n1` [Compound I-732], the inhibition at 1 µM under setting [1] fell in the range of 25 to 50%.

As for `N=C(N)c1ccc2cc(C(=O)N[C@H]3CC[C@H](N)CC3)n(Cc3cc(OCc4ccccc4)cc4ccccc34)c2c1` [Compound I-733], the inhibition at 1 µM under setting [1] fell in the range of 75 to 100%.

Turning to `N=C(N)c1ccc2cc(C(=O)N[C@H]3CC[C@H](NC(=O)NC(N)=O)CC3)n(Cc3cccc4ccccc34)c2c1` [Compound I-734], the inhibition at 1 µM under setting [1] lay in the range of 50 to 75%.

With `COC(=O)N[C@H]1CC[C@H](NC(=O)c2cc3ccc(C(=N)N)cc3n2Cc2cccc3ccccc23)CC1` [Compound I-735], the inhibition at 1 µM under setting [1] was 25 to 50%.

For the compound `N=C(N)c1ccc2cc(C(=O)N[C@H]3CC[C@H](NC(N)=O)CC3)n(Cc3cccc4ccccc34)c2c1` [Compound I-736], the inhibition at 1 µM under setting [1] lay within 50 to 75%.

Turning to `N=C(N)c1ccc2cc(C(=O)N[C@H]3CC[C@H](N)CC3)n(Cc3cc(OCCc4ccccc4)cc4ccccc34)c2c1` [Compound I-737], under setting [1], the inhibition at 1 µM was in the range of 75 to 100%.

`COC(=O)c1cc2ccc(C(=N)NC(=O)Oc3ccccc3)cc2n1Cc1cccc2ccccc12` [Compound I-738]: the inhibition at 1 µM lay in the range of 0 to 25%.

With `CC(C)(C)Sc1cccc2c(Cn3c(C(=O)N[C@H]4CC[C@H](N)CC4)cc4ccc(C(=N)N)cc43)cccc12` [Compound I-739], the inhibition at 1 µM under setting [1] was 75 to 100%.

In the case of `N=C(N)c1ccc2cc(C(=O)N[C@H]3CC[C@H](N)CC3)n(Cc3cccc4cc(OCc5ccccc5)ccc34)c2c1` [Compound I-740], the inhibition at 1 µM under setting [1] lay in the range of 75 to 100%.

With `N=C(N)c1ccc2cc(C(=O)N[C@H]3CC[C@H](Nc4ncccn4)CC3)n(Cc3cccc4ccccc34)c2c1` [Compound I-741], the inhibition at 1 µM under setting [1] was 50 to 75%.

Turning to `CC(C)(C)S(=O)(=O)c1cccc2c(Cn3c(C(=O)N[C@H]4CC[C@H](N)CC4)cc4ccc(C(=N)N)cc43)cccc12` [Compound I-742], the inhibition at 1 µM under setting [1] lay within 50 to 75%.

As for `NCc1ccc2cc(C(=O)N[C@H]3CC[C@@H](N)CC3)n(Cc3cccc4ccccc34)c2c1` [Compound I-743], the inhibition at 1 µM under setting [1] lay in the range of 50 to 75%.

In the case of `N=C(N)c1ccc2cc(C(=O)O[C@H]3CC[C@@H](N)CC3)n(Cc3cccc4ccccc34)c2c1` [Compound I-744], the inhibition at 1 µM under setting [1] lay in the range of 75 to 100%.

As to `N=C(N)c1ccc2cc(C(=O)OCCN)n(Cc3cccc4ccccc34)c2c1` [Compound I-745], the inhibition at 1 µM under setting [1] fell in the range of 0 to 25%.

As for `N=C(N)c1ccc2cc(C(=O)O)n(Cc3cc(Oc4ccccc4)cc4ccccc34)c2c1` [Compound I-746], under setting [1], the inhibition at 1 µM lay within 50 to 75%.

Take `CNC(=N)c1ccc2[nH]c(C(=O)N[C@H]3CC[C@H](N)CC3)c(Cc3cccc4ccccc34)c2c1` [Compound I-747]: the inhibition at 1 µM under setting [1] lay in the range of 0 to 25%.

On to `N=C(N)c1ccc2cc(-c3ncco3)n(Cc3cccc4ccccc34)c2c1` [Compound I-748, 1-(naphthalen-1-ylmethyl)-2-(oxazol-2-yl)-1H-indole-6-carboximidamide], for which the inhibition at 1 µM under setting [1] was in the range of 75 to 100%.

Consider `CS(=O)(=O)Nc1cc2ccc(C(=N)N)cc2n1Cc1cccc2ccccc12` [Compound I-749, 2-(methylsulfonamido)-1-(naphthalen-1-ylmethyl)-1H-indole-6-carboximidamide], for which the inhibition at 1 µM under setting [1] lay in the range of 50 to 75%.

Regarding `N=C(N)c1ccc2cc(-c3nccs3)n(Cc3cccc4ccccc34)c2c1` [Compound I-750, 1-(naphthalen-1-ylmethyl)-2-(thiazol-2-yl)-1H-indole-6-carboximidamide], under setting [1], the inhibition at 1 µM is 50 to 75%.

In the case of `Cc1nnc(-c2cc3ccc(C(=N)N)cc3n2Cc2cccc3ccccc23)o1` [Compound I-751, 2-(5-methyl-1,3,4-oxadiazol-2-yl)-1-(naphthalen-1-ylmethyl)-1H-indole-6-carboximidamide], under setting [1], the inhibition at 1 µM is 50 to 75%.

Take `CN1CCC(OC(=O)c2cc3ccc(C(=N)N)cc3n2Cc2cccc3ccccc23)CC1` [Compound I-752]: under setting [1], the inhibition at 1 µM was in the range of 75 to 100%.

As for `CS(=O)(=O)N[C@H]1CC[C@H](NC(=O)c2cc3ccc(C(=N)N)cc3n2Cc2cccc3ccccc23)CC1` [Compound I-753], the inhibition at 1 µM under setting [1] lay in the range of 50 to 75%.

`CC(=O)N[C@H]1CC[C@H](NC(=O)c2cc3ccc(C(=N)N)cc3n2Cc2cccc3ccccc23)CC1` [Compound I-754]: the inhibition at 1 µM under setting [1] was 50 to 75%.

Turning to `N=C(N)c1ccc2cc(C(=O)N[C@H]3CC[C@H](N)CC3)n(Cc3cnoc3-c3ccc(Cl)s3)c2c1` [Compound I-755], the inhibition at 1 µM under setting [1] lay within 25 to 50%.

For the compound `N=C(N)c1ccc2cc(C(=O)N[C@H]3CC[C@H](N)CC3)n(Cc3csc4ccccc34)c2c1` [Compound I-756], under setting [1], the inhibition at 1 µM fell in the range of 75 to 100%.

As to `N=C(N)c1ccc2cc(C(=O)NCc3ccncc3)n(Cc3cccc4ccccc34)c2c1` [Compound I-758], under setting [1], the inhibition at 1 µM lay within 50 to 75%.

For the compound `N/C(=N/O)c1ccc2cc(C(=O)O)n(Cc3cccc4ccccc34)c2c1` [Compound I-759], the inhibition at 1 µM under setting [1] fell in the range of 0 to 25%.

As to `N=C(N)c1ccc2cc(C(=O)Nc3cccc4c3OCCO4)n(Cc3cccc4ccccc34)c2c1` [Compound I-760], under setting [1], the inhibition at 1 µM was 0 to 25%.

In the case of `CN1CCC(COC(=O)c2cc3ccc(C(=N)N)cc3n2Cc2cccc3ccccc23)CC1` [Compound I-761], the inhibition at 1 µM under setting [1] was 75 to 100%.

Turning to `CC(=O)NC(=N)c1ccc2cc(C(=O)NC3CCN(C)CC3)n(Cc3cccc4ccccc34)c2c1` [Compound I-762, 6-(N-acetylcarbamimidoyl)-N-(1-methylpiperidin-4-yl)-1-(naphthalen-1-ylmethyl)-1H-indole-2-carboxamide], the inhibition at 1 µM under setting [1] fell in the range of 0 to 25%.

For the compound `N=C(N)c1ccc2cc(C(=O)Nc3ccncc3)n(Cc3cccc4ccccc34)c2c1` [Compound I-763], the inhibition at 1 µM under setting [1] fell in the range of 50 to 75%.

These data come from US12428415B2, “Matriptase 2 inhibitors and uses thereof” (Disc Medicine, Inc., priority 2018, dated 2025).
